The source of these data is patent US7572806B2, “PPAR active compounds” (Plexxikon, Inc., priority 2003, dated 2009).

In one assay the target is T1, PPARα (Homo sapiens, UniProt Q07869).
T1 sequence (Q07869 1-468): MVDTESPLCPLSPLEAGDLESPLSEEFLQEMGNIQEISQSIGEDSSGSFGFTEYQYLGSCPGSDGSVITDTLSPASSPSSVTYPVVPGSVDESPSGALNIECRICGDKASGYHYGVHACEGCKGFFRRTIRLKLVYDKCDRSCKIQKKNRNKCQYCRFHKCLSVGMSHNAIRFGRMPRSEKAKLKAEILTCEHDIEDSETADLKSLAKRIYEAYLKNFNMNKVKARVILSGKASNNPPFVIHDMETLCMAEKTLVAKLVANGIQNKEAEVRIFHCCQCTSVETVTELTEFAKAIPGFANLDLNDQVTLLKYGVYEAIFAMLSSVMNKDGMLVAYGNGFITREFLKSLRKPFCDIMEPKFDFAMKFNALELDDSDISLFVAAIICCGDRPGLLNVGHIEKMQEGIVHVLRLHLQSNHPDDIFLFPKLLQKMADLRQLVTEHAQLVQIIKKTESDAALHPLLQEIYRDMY
The assay is described as follows: Alpha screen assay, agonist mode, ligand dependent interaction of PPAR with coactivator peptide. The assay is classed as biochemical. On the procedure: (§1) The homogenous Alpha screen assay was used in the agonist mode to determine the ligand dependent interaction of the PPARs (α,δ,γ) with the coactivator peptides (SRC or DRIP205). Briefly 15 ul of the reaction mix (50 mM Tris pH 7.5, 50 mM Kcl, 0.05% Tween 20, 1 mM DTT, 0.1% BSA and 10 nM-200 nMPPAR and […] coactivator peptide) was added to the test compound (1 ul compound in DMSO) and preincubated for 1-6 hr. Next, 5 ul of the Alpha screen beads were added. The reactions were incubated for 2 hrs before taking the reading in the Fusion alpha instrument. In the antagonist mode compounds were assayed for inhibition of the co-activator binding signal caused by the control agonists for each receptor.
(§2) The controls agonists used were WY-14643(PPAR(α), farglitazar (PPAR(γ) and bezafibrate (PPAR(δ).
(§3) Using the assay above, compounds from Table 1 were analyzed for activity. The data reported in Table 2 was generated via the alpha screen assay and expressed in μMol/L. The data points from the Fusion alpha instrument were transferred to Assay Explorer® (MDL) to generate a curve and calculate the inflection point of the curve as EC50.

The target of another assay is T2, PPARγ (Homo sapiens, UniProt P37231).
T2 sequence (P37231 1-505): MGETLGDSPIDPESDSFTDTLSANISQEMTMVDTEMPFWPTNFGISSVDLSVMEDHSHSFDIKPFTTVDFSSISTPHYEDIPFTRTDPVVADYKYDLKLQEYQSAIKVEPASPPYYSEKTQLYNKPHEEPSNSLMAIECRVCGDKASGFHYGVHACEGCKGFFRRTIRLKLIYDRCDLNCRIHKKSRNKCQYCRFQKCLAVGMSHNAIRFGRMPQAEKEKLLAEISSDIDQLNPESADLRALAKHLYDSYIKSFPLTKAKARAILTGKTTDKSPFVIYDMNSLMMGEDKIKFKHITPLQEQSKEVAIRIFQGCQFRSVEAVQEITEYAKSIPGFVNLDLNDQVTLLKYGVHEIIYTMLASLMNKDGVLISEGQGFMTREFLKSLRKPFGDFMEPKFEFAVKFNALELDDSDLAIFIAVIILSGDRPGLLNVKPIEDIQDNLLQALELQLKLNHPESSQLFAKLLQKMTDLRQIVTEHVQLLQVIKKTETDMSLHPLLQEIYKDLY
The description is as above. Type of assay: biochemical. The note with it: for EC50: Alpha screen. On the procedure:
as §1, §2, §3

Assay [1] deals with T3, PPARδ (Homo sapiens, UniProt Q03181).
T3 sequence (Q03181 1-441): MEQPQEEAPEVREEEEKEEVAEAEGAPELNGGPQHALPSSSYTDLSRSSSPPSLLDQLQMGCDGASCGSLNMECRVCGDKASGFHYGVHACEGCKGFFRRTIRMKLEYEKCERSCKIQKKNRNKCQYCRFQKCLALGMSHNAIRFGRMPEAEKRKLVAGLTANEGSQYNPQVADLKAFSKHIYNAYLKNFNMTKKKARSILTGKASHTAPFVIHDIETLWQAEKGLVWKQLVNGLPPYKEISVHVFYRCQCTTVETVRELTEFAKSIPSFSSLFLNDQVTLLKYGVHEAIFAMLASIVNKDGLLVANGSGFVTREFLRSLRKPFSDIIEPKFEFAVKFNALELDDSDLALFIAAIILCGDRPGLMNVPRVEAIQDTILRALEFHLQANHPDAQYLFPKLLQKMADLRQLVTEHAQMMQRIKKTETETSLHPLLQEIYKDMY
Described as above. Type of assay: biochemical. The protocol:
as §1, §2, §3

Assay [2] deals with T3, PPARδ. As to conditions: cited from earlier work.
A further assay addresses T4, murine PPARα (Mus musculus, UniProt P23204).
T4 sequence (P23204 1-468): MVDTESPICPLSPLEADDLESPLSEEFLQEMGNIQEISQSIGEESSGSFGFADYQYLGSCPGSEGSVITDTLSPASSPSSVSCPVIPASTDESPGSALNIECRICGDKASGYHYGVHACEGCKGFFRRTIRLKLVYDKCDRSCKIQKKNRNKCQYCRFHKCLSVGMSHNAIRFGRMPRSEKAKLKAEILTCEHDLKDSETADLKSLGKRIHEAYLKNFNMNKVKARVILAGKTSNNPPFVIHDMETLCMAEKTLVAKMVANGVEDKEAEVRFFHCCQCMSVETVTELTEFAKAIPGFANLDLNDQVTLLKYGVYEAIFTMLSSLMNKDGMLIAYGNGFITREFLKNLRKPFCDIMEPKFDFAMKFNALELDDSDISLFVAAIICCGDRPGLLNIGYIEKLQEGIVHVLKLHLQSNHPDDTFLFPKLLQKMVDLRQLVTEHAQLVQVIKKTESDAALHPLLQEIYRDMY
As to conditions: cited from earlier work.

For assay [3] the following is noted: large prospective trial; cited from earlier work.
For another assay, the system named is PPARs (α,δ,γ). In words: Alpha screen assay, pan-activity across the PPARs. The note with it: PPARα, PPARδ and PPARγ. Type of assay: biochemical, human. The protocol: as §1, §2, §3
Where [4] appears, read: agonist mode, read-out: PPARα agonist.
[5] abbreviates: agonist mode, read-out: PPARγ Agonist.
The mark [6] stands for this setting: agonist mode, read-out: PPARδ Agonist.

Read-outs that look alike come from different tables or passages of the source.

As for `COc1ccc2c(c1)c(CCC(=O)O)cn2Cc1ccccc1` [compound 71, 3-(1-Benzyl-5-methoxy-1H-indol-3-yl)-propionic acid], the results for the EC50 at PPARα (setting [4]), on PPARγ (setting [5]) and at PPARδ [1] (setting [6]) were at most 10 µM, over 10 µM and over 10 µM, respectively.
Turning to `CCOc1ccc2c(c1)c(CCC(=O)O)cn2S(=O)(=O)c1ccccc1` [compound 82, 3-(1-Benzenesulfonyl-5-ethoxy-1H-indol-3-yl)-propionic acid], the EC50 at PPARα (setting [4]), at PPARγ (setting [5]) and on PPARδ [1] (setting [6]) was at most 10 µM in each case.
As to `CCCCc1ccc(S(=O)(=O)n2cc(CCC(=O)O)c3cc(OC)ccc32)cc1` [compound 77, 3-[1-(4-Butyl-benzenesulfonyl)-5-methoxy-1H-indol-3-yl]-propionic acid], the EC50 on PPARα (setting [4]), on PPARγ (setting [5]) and on PPARδ [1] (setting [6]) was at most 10 µM each time.
In the case of `COc1ccc2c(c1)c(CCC(=O)O)cn2S(=O)(=O)c1cccc(OC(F)(F)F)c1` [compound 79, 3-[5-Methoxy-1-(3-trifluoromethoxy-benzenesulfonyl)-1H-indol-3-yl]-propionic acid], the EC50 on PPARα (setting [4]), at PPARγ (setting [5]) and on PPARδ [1] (setting [6]) was at most 10 µM in each case.
For the compound `O=C(O)CCc1cn(S(=O)(=O)c2ccccc2)c2ccc(-c3ccsc3)cc12` [compound 92, 3-(Benzenesulfonyl-5-thiophen-3-yl-1H-indol-3-yl)-propionic acid], the EC50 on PPARα (setting [4]) was at most 10 µM; on PPARγ (setting [5]) it was at most 10 µM; on PPARδ [1] (setting [6]) it was over 10 µM.
With `COc1ccc2c(c1)c(CCC(=O)O)cn2C(=O)Nc1ccccc1` [compound 85, 3-(5-Methoxy-1-phenylcarbamoyl-1H-indol-3-yl)-propionic acid], the EC50 at PPARα (setting [4]), on PPARγ (setting [5]) and on PPARδ [1] (setting [6]) was over 10 µM each time.
Regarding `COc1ccc2c(c1)c(CCC(=O)O)cn2S(=O)(=O)c1ccc(Cl)cc1` [compound 49, 3-[1-(4-Chloro-benzenesulfonyl)-5-methoxy-1H-indol-3-yl]-propionic acid], the EC50 on PPARα (setting [4]), at PPARγ (setting [5]) and at PPARδ [1] (setting [6]) was at most 10 µM in each case.
For `CCCc1c(OCCCOc2ccc(OCC(=O)O)cc2)ccc(C(C)=O)c1O` [L-165041], at PPARδ [2], the “agonist selectivity for PPARδ over PPARγ” value is “approximately 30 fold”. The “activity on murine PPARα” value on murine PPARα is “inactive”.
As to `Cc1ccc(C)c(OCCCC(C)(C)C(=O)O)c1` [gemfibrozil], the “reduction in cardiovascular events or death” value in assay [3] is 22%.
For the compound `COc1ccc2c(c1)c(CCC(=O)O)cn2C(=S)Nc1ccccc1` [compound 75, 3-(5-Methoxy-1-phenylthiocarbamoyl-1H-indol-3-yl)-propionic acid], the EC50 on PPARα (setting [4]), at PPARγ (setting [5]) and on PPARδ [1] (setting [6]) was over 10 µM in each case.
As for `O=C(O)CCc1nn(S(=O)(=O)c2ccccc2)c2ccccc12` [compound 39, 3-(1-Benzenesulfonyl-1H-indazol-3-yl)-propionic acid], the EC50 on PPARα (setting [4]), on PPARγ (setting [5]) and at PPARδ [1] (setting [6]) was over 10 µM throughout.
Turning to `COc1ccc2c(c1)c(CCC(=O)O)cn2S(=O)(=O)c1ccc(Cl)c(Cl)c1` [compound 53, 3-[1-(3,4-Dichloro-benzenesulfonyl)-5-methoxy-1H-indol-3-yl]-propionic acid], the EC50 on PPARα (setting [4]), on PPARγ (setting [5]) and at PPARδ [1] (setting [6]) was at most 10 µM in each case. Besides, the pan-activity result in the assay on PPARs (α,δ,γ) is listed as “low micromolar or even sub-micromolar”.
For `O=C(O)CCc1cn(S(=O)(=O)c2ccccc2)c2ccccc12` [compound 97, 3-(1-Benzenesulfonyl-1H-indol-3-yl)-propionic acid], the EC50 at PPARα (setting [4]), on PPARγ (setting [5]) and on PPARδ [1] (setting [6]) was over 10 µM in each case.
For the compound `CCCCOc1ccc(S(=O)(=O)n2cc(CCC(=O)O)c3cc(OC)ccc32)cc1` [compound 43, 3-[1-(4-Butoxy-benzenesulfonyl)-5-methoxy-1H-indol-3-yl]-propionic acid], the EC50 on PPARα (setting [4]), on PPARγ (setting [5]) and on PPARδ [1] (setting [6]) was at most 10 µM each time. Also, in the assay with PPARs (α,δ,γ), the pan-activity result was “low micromolar or even sub-micromolar”.
As to `CCc1ccc2c(c1)c(CCC(=O)O)cn2S(=O)(=O)c1ccccc1` [compound 6, 3-(1-Benzenesulfonyl-5-ethyl-1H-indol-3-yl)-propionic acid], the EC50 on PPARα (setting [4]) is over 10 µM; at PPARα (read-out: activity on PPARα), at least 200 µM; on PPARγ (setting [5]), at most 10 µM; at PPARγ (read-out: activity on PPARγ), about 8 µM; at PPARδ [1] (setting [6]), over 10 µM; at PPARδ [1] (read-out: activity on PPARδ), at least 200 µM. On PPARγ (PPARγ versus PPARα and δ), the selectivity result is “selective for PPARγ”.
`COc1ccc2c(c1)c(CCC(=O)O)cn2S(=O)(=O)c1ccccc1` [compound 29, 3-(1-Benzenesulfonyl-5-methoxy-1H-indol-3-yl)-propionic acid]: the EC50 on PPARα (setting [4]), on PPARγ (setting [5]) and at PPARδ [1] (setting [6]) was at most 10 µM in each case. Moreover, the pan-activity entry in the assay on PPARs (α,δ,γ) was “low micromolar or even sub-micromolar”.
For `COc1ccc2c(c1)c(CCC(=O)O)cn2C(=O)c1ccccc1` [compound 81, 3-(1-Benzoyl-5-methoxy-1H-indol-3-yl)-propionic acid], the EC50 is at most 10 µM on PPARα (setting [4]), over 10 µM at PPARγ (setting [5]) and over 10 µM at PPARδ [1] (setting [6]).
